Laboratory results: patent publication US20060177888A1, “Method for evaluating antioxidation capability of organism sample” (Chugai Seiyaku Kabushiki Kaisha, priority 2003, published 2006)

Tests used:
[1] = test system: cholesterol esters contained in plasma samples; test: Amounts of CEOOHs and CEOHs produced in AAPH-initiated oxidation of plasma samples with added antioxidant; type: biochemical; settings: antioxidant added to human plasma at various concentrations five minutes before AAPH (10 mM), 37° C., 8 hours; endogenous α-tocopherol present; FIG. 4
Experimental: Assay reproducibility was tested for oxidation products of cholesterol esters contained in plasma samples obtained from a normal human subject. In this test, the cholesterol esters were regarded as oxidizable substrates.
Blood was collected in heparin from one normal human subject who gave informed consent to prepare a plasma pool.
1.1 mL portions of this plasma sample were put into nine test tubes and were frozen-stored at −80° C.
Three test tubes A, B and C containing the frozen plasma were warmed to 37° C. for 5 minutes to thaw the frozen plasma. After thawing, the test tubes were kept in ice.
10 μL of an aqueous solution of AAPH (available from Wako Pure Chemical Industries, Ltd.; Lot No. DWF 1183) was added to 300 μL of plasma removed from each test tube at an AAPH concentration of 10 mM. Then, they were warmed to 37° C. to initiate an oxidation reaction.
After maintaining at 37° C. for 8 hours, the 3 vessels each containing the reaction solution were immersed in ice to stop the reaction. 1 mL of a methanol containing 0.02% acetic acid and 5 mL of hexane were added to 100 μL of each reaction solution to extract lipids. 4 mL of the hexane extract removed from each reaction solution was concentrated on Speed Vac (AES1010 available from Thermo Savant), and each concentrate was dissolved in 200 μL of isopropyl alcohol. […]

[2] = reported in literature (Gotoh 1992; Noguchi 1997); cited from earlier work

For CCCCCC1(CCCCC)Cc2c(cc(C(C)(C)C)c(O)c2C(C)(C)C)O1 [BO-653, 4,6-di-t-butyl-5-hydroxy-2,2-di-n-pentyl-2,3-dihydrobenzofuran], the “amounts of CEOOHs and CEOHs produced with the increase of the concentration of the antioxidant” value [1] is given as “significantly decrease” and the “rate of the reaction with linoleic acid peroxy radicals, expressed as ratio to the rate of the reaction of α-tocopherol” value [2] is given as 1/2.
In the case of Cc1c(C)c2c(c(C)c1O)CC[C@@](C)(CCC[C@H](C)CCC[C@H](C)CCCC(C)C)O2 [α-tocopherol], the “amounts of CEOOHs and CEOHs produced with the increase of the concentration of the antioxidant” value [1] is reported as “significantly increase”.
